The target of one test is T1, CDK2 (Homo sapiens, UniProt P24941).
T1 construct: endogenous in cells; host or cells: MDA-MB-231
In words: CDK protein degradation activity (Western blotting), CDK2. The format is cell-based. The conditions noted are these: MDA-MB-231 cells, 16 hours, Western blot. Summed up:
(§1)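 MDA-MB-231; cmpd 100 nM / 1 μM / 10 μM final vs DMSO, 16 h. Triton X-100 lysates (pH 7.5, phosphatase/protease inhibitors) → SDS-PAGE → Western blot, anti-CDK2, anti-CDK9, tubulin loading control; densitometry.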

The target of the next test is T2, CDK9 (Homo sapiens, UniProt P50750).
T2 construct: endogenous in cells; host or cells: MDA-MB-231
In words: CDK protein degradation activity (Western blotting), CDK9. The conditions noted are these: MDA-MB-231 cells, 16 hours, Western blot. The format is cell-based. The essentials: as §1

The record followed here is patent US20260125382A1, “COMPOUNDS FOR INHIBITING OR DEGRADING CDK2 AND/OR CDK9 AND MEDICINAL USE THEREOF” (KOREA RESEARCH INSTITUTE OF CHEMICAL TECHNOLOGY, priority 2022, published 2026).

T2 sequence (P50750 whole entry): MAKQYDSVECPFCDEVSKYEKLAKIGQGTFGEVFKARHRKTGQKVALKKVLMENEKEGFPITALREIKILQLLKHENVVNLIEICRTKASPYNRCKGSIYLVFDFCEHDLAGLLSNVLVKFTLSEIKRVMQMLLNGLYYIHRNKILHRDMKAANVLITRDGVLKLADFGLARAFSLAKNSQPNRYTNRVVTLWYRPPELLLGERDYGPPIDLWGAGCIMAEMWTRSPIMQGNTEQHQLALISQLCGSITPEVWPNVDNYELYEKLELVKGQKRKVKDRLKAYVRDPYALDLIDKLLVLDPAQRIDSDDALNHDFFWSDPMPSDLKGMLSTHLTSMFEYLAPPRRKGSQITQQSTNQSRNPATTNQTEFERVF

Regarding `O=C1CC[C@H](N2C(=O)c3cccc(N4CC(CN5CCC6(CC5)CC(N5CCN(c7ccc(Nc8ncnc9c8ncn9[C@H]8C[C@@H](NC(=O)Cc9ccccc9)C8)cc7)CC5)C6)C4)c3C2=O)C(=O)N1` [Compound 279, N-((1s,3s)-3-(6-((4-(4-(7-((1-(2-(2,6-dioxopiperidin-3-yl)-1,3-dioxoisoindolin-4-yl)azetidin-3-yl)methyl)-7-azaspiro[3.5]nonan-2-yl)piperazin-1-yl)phenyl)amino)-9H-purin-9-yl)cyclobutyl)-2-phenylacetamide], on CDK2, the “Enzyme degradation CDK2 (% remaining) @ 0.1 μM” value is on record as 50%, the “Enzyme degradation CDK2 (% remaining) @ 1 μM” value came to 40% and the “Enzyme degradation CDK2 (% remaining) @ 10 μM” value was determined as 40%. Besides, on CDK9, the “Enzyme degradation CDK9 (% remaining) @ 0.1 μM” value came to 40%, the “Enzyme degradation CDK9 (% remaining) @ 1 μM” value is on record as 10% and the “Enzyme degradation CDK9 (% remaining) @ 10 μM” value worked out at 10%.
In the case of `O=C1CCC(N2C(=O)c3ccc(N4CCC(CN5CCN(c6ccc(Nc7ncnc8c7ncn8[C@H]7C[C@@H](NC(=O)c8cccc(Cl)n8)C7)cc6)CC5)CC4)cc3C2=O)C(=O)N1` (stereo partly drawn) [Compound 391, 6-chloro-N-((1s,3s)-3-(6-((4-(4-((1-(2-(2,6-dioxopiperidin-3-yl)-1,3-dioxoisoindolin-5-yl)piperidin-4-yl)methyl)piperazin-1-yl)phenyl)amino)-9H-purin-9-yl)cyclobutyl)picolinamide], on CDK2, the “Enzyme degradation CDK2 (% remaining) @ 0.1 μM” value was 10/10/10%, the “Enzyme degradation CDK2 (% remaining) @ 1 μM” value is given as 10/10/10% and the “Enzyme degradation CDK2 (% remaining) @ 10 μM” value is reported as 10/10/10%. In addition, on CDK9, the “Enzyme degradation CDK9 (% remaining) @ 0.1 μM” value was 0/0/0%, the “Enzyme degradation CDK9 (% remaining) @ 1 μM” value is on record as 0/0/0% and the “Enzyme degradation CDK9 (% remaining) @ 10 μM” value is 0/0/0%.
Take `O=C1CC[C@H](n2nnc3ccc(N4CCC(CN5CCN(c6ccc(Nc7ncnc8c7ncn8C7CC(NC(=O)c8cccc(F)n8)C7)cc6)CC5)CC4)cc3c2=O)C(=O)N1` (stereo partly drawn) [Compound 429, N-((1s,3s)-3-(6-((4-(4-((1-(3-(2,6-dioxopiperidin-3-yl)-4-oxo-3,4-dihydrobenzo[d][1,2,3]triazin-6-yl)piperidin-4-yl)methyl)piperazin-1-yl)phenyl)amino)-9H-purin-9-yl)cyclobutyl)-6-fluoropicolinamide]: on CDK2, the “Enzyme degradation CDK2 (% remaining) @ 0.1 μM” value was 10/10/10%, the “Enzyme degradation CDK2 (% remaining) @ 1 μM” value was 10/10/10% and the “Enzyme degradation CDK2 (% remaining) @ 10 μM” value is reported as 10/10/10%. In addition, on CDK9, the “Enzyme degradation CDK9 (% remaining) @ 0.1 μM” value is 0/0/0%, the “Enzyme degradation CDK9 (% remaining) @ 1 μM” value is 0/0/0% and the “Enzyme degradation CDK9 (% remaining) @ 10 μM” value is listed as 0/0/0%.
As for `Cc1cccc(C(=O)NC2CC(n3cnc4c(NCCCN5CCN(CC6CCN(C(=O)COc7ccc([C@@H]8CCC(=O)NC8=O)cc7)CC6)CC5)ncnc43)C2)n1` (stereo partly drawn) [Compound 229, N-((1s,3s)-3-(6-((3-(4-((1-(2-(4-(2,6-dioxopiperidin-3-yl)phenoxy)acetyl)piperidin-4-yl)methyl)piperazin-1-yl)propyl)amino)-9H-purin-9-yl)cyclobutyl)-6-methylpicolinamide], on CDK2, the “Enzyme degradation CDK2 (% remaining) @ 0.1 μM” value came to 70%, the “Enzyme degradation CDK2 (% remaining) @ 1 μM” value was determined as 90% and the “Enzyme degradation CDK2 (% remaining) @ 10 μM” value is given as 100%. Further, at CDK9, the “Enzyme degradation CDK9 (% remaining) @ 0.1 μM” value was found to be 20%, the “Enzyme degradation CDK9 (% remaining) @ 1 μM” value amounted to 10% and the “Enzyme degradation CDK9 (% remaining) @ 10 μM” value was 0%.
Turning to `O=C1CC[C@H](N2C(=O)c3cccc(N4CCC(CCCN5CCN(c6ccc(Nc7ncnc8c7ncn8[C@H]7C[C@@H](NC(=O)Cc8ccccc8)C7)cc6)CC5)CC4)c3C2=O)C(=O)N1` [Compound 261, N-((1s,3s)-3-(6-((4-(4-(3-(1-(2-(2,6-dioxopiperidin-3-yl)-1,3-dioxoisoindolin-4-yl)piperidin-4-yl)propyl)piperazin-1-yl)phenyl)amino)-9H-purin-9-yl)cyclobutyl)-2-phenylacetamide], at CDK2, the “Enzyme degradation CDK2 (% remaining) @ 0.1 μM” value is recorded as 70%, the “Enzyme degradation CDK2 (% remaining) @ 1 μM” value is on record as 90% and the “Enzyme degradation CDK2 (% remaining) @ 10 μM” value came out at 100%. Moreover, at CDK9, the “Enzyme degradation CDK9 (% remaining) @ 0.1 μM” value was 60%, the “Enzyme degradation CDK9 (% remaining) @ 1 μM” value is 30% and the “Enzyme degradation CDK9 (% remaining) @ 10 μM” value is given as 20%.
Consider `O=C1CC[C@H](N2C(=O)c3ccc(NCC(=O)N4CCC5(CC(N6CCN(c7ccc(Nc8ncnc9c8ncn9[C@H]8C[C@@H](NC(=O)Cc9ccccc9)C8)cc7)CC6)C5)C4)cc3C2=O)C(=O)N1` (stereo partly drawn) [Compound 265, N-((1s,3s)-3-(6-((4-(4-(6-((2-(2,6-dioxopiperidin-3-yl)-1,3-dioxoisoindolin-5-yl)glycyl)-6-azaspiro[3.4]octan-2-yl)piperazin-1-yl)phenyl)amino)-9H-purin-9-yl)cyclobutyl)-2-phenylacetamide], for which, at CDK2, the “Enzyme degradation CDK2 (% remaining) @ 0.1 μM” value came to 90%, the “Enzyme degradation CDK2 (% remaining) @ 1 μM” value is given as 70% and the “Enzyme degradation CDK2 (% remaining) @ 10 μM” value came out at 70%. In addition, on CDK9, the “Enzyme degradation CDK9 (% remaining) @ 0.1 μM” value stood at 10%, the “Enzyme degradation CDK9 (% remaining) @ 1 μM” value came to 0% and the “Enzyme degradation CDK9 (% remaining) @ 10 μM” value was determined as 0%.
Turning to `O=C1CC[C@@H](c2ccc(OCC(=O)N3CCC(CN4CCN(c5ccc(Nc6ncnc7c6ncn7[C@H]6C[C@@H](NC(=O)c7cccc(Cl)n7)C6)cc5)CC4)CC3)cc2)C(=O)N1` [Compound 440, 6-chloro-N-((1s,3s)-3-(6-((4-(4-((1-(2-(4-(2,6-dioxopiperidin-3-yl)phenoxy)acetyl)piperidin-4-yl)methyl)piperazin-1-yl)phenyl)amino)-9H-purin-9-yl)cyclobutyl)picolinamide], at CDK2, the “Enzyme degradation CDK2 (% remaining) @ 0.1 μM” value is given as 20/20/20%, the “Enzyme degradation CDK2 (% remaining) @ 1 μM” value was 20/20/20% and the “Enzyme degradation CDK2 (% remaining) @ 10 μM” value was 20/20/20%. Moreover, on CDK9, the “Enzyme degradation CDK9 (% remaining) @ 0.1 μM” value was 10/10/10%, the “Enzyme degradation CDK9 (% remaining) @ 1 μM” value is listed as 10/10/10% and the “Enzyme degradation CDK9 (% remaining) @ 10 μM” value is on record as 10/10/10%.
As for `Cc1cccc(C(=O)N[C@H]2C[C@@H](n3cnc4c(NCCC5CCN(CC6CCN(C(=O)C7CCN(c8cc9c(cc8F)C(=O)N(C8CCC(=O)NC8=O)C9=O)CC7)CC6)CC5)ncnc43)C2)n1` (stereo partly drawn) [Compound 450, N-((1s,3s)-3-(6-((2-(1-((1-(1-(2-(2,6-dioxopiperidin-3-yl)-6-fluoro-1,3-dioxoisoindolin-5-yl)piperidin-4-carbonyl)piperidin-4-yl)methyl)piperidin-4-yl)ethyl)amino)-9H-purin-9-yl)cyclobutyl)-6-methylpicolinamide], on CDK2, the “Enzyme degradation CDK2 (% remaining) @ 0.1 μM” value is reported as 50/50/50%, the “Enzyme degradation CDK2 (% remaining) @ 1 μM” value is on record as 50/50/50% and the “Enzyme degradation CDK2 (% remaining) @ 10 μM” value was 50/50/50%. In addition, at CDK9, the “Enzyme degradation CDK9 (% remaining) @ 0.1 μM” value is 0/0/0%, the “Enzyme degradation CDK9 (% remaining) @ 1 μM” value is listed as 0/0/0% and the “Enzyme degradation CDK9 (% remaining) @ 10 μM” value is 0/0/0%.
